Test results from patent publication US20220411847A1, “GLUCOSE/GALACTOSE BIOSENSORS AND METHODS OF USING SAME” (Duke University, priority 2015, published 2022).

Legend:
[1] = Thermal denaturation followed by fluorescence ratio, two-state fit; format: physicochemical; conditions: thermal stability of the 183C acrylodan conjugate mutant
Description: (§1) The titration series were mixed with GGBP183C⋅acrylodan or BD_SM4⋅acrylodan conjugates in 384-well microtiter plates. The temperature dependence of the titrations was measured in a real-time PCR machine (Roche LightCycler 480) by determining the ratio of fluorescence emission intensities at 488, 510, and 580 nm (excitation at 440 nm) as a function of temperature (290-370K). Temperatures were advanced in 1K steps. At each temperature data was collected for at 1-second intervals for 60 seconds at which point the signal had relaxed to a steady value associated with the new temperature. Collection times were adjusted to minimize photobleaching (which was not detectable under these experimental conditions). Data reduction software was developed to convert these observations into time-independent datasets that record fluorescence as a function of temperature for each well and associate wells with their concentration of titrant and additive. Management tools were developed to maintain a database of titrations and their analyses.
Fits of these equation systems to experimental observations such as shown in FIG. 5 require good initial estimates of the parameters. These can then be refined using multi-dimensional conjugate gradient methods. To obtain local fits for protein thermostability in the absence of ligand we solve
This gives excellent fits (FIG. 7).

[2] = Glucose titration at room temperature on Nanodrop3300 fluorimeter; format: binding
Description: (§2) In addition to the Roche LightCycler, which has a limited choice of emission wavelengths, data for selected mutants also was measured at room temperature on a Nanodrop3300 (Thermo Scientific) fluorimeter, which records full emission spectra. Emission intensities at a particular wavelength were extracted by integration of the spectral emission intensities over a 20-nm interval centered on that wavelength.
(§3) Signals S (either single-wavelength emission intensities, LT, or ratios of intensities at two wavelengths, Rig) were fit to ligand-binding isotherms:
(§4) where [L] is the ligand concentration and Kd the dissociation constant corresponding to ^appKd or ^trueKd for fits to R12 (weighted by the relative contributions of ^satβ at the two different wavelengths) and Iλ respectively. For a given isothermal titration, values for ^appKd and ^true Kd were obtained using a non-linear fitting algorithm in which these two parameters were simultaneously fit to the three experimental binding isotherms using equations 29 and 30, with the two monochromatic isotherms sharing the same ^trueKd value. Three separate pairs of ^apoβ and ^satβ were fit in this procedure.

[3] = Fluorescence emission response to ligand binding; parameters: key to Response Intensity^c: +, increases in response to ligand; —: decreases; 0, no change in the glucose titration; key to Response Shape^b: m, monochromatic; d, dichromatic (i.e. spectral shape changes); 0, no change in the glucose titration; conditions: glucose titration; Nanodrop3300; room temperature
Description: as §1, §2

[4] = Galactose titration at room temperature on Nanodrop3300 fluorimeter; format: binding; conditions: ^e noisy data
Description: as §2, §3, §4

[5] = Isothermal glucose titrations from fluorescent landscapes (Roche LightCycler); format: binding
Description: as §1
The response of acrylodan to glucose binding was separated from the effects of thermal denaturation by extracting binding isotherms within the temperature range where the apo-protein remains >99% folded (T<320 K; FIG. 7). Within this temperature range, binding isotherms were constructed by extracting fluorescence values across different wells, each containing different glucose concentrations, at a given temperature, and fit individually with high accuracy to isotherms (FIG. 8):
using linear baselines which vary individually in accordance with the tilt of the S, S1, and S2 baseplanes that correspond the saturated glucose complex. The individually fit Kd(T) values were converted into ΔGb(T) and fit to the Gibbs-Helmholtz equation 9 (FIG. 9).
(§5) Analysis of mutant affinity values: Isothermal glucose titrations were extracted from the fluorescent landscape or emission datasets as described above. Monochromatic emission intensities Iλ. (these intensities correspond to a bandpass intensity recorded with a physical filter in the case of the Roche LightCycler) were fit to
(§6) where ^apoIλ2 ^apoIλ2 and ^satIλ2^satIλ2 are the emission intensities of the monochromatic signal at wavelength λ2λ2 of the ligand-free and ligand-bound protein, respectively. Equation 28 illustrates that the ^appKd ^appKd values obtained by fits of 25 to ratiometric signals are wavelength dependent. To obtain wavelength-independent values needed for comparison of mutant proteins, it is necessary to simultaneously fit ^appKd ^appKd to the ratiometric signal and ^trueKd ^trueKd to the two monochromatic signals. For a given isothermal titration, values for ^appKd ^appKd and ^trueKd ^trueKd were obtained using a non-linear fitting algorithm in which these two parameters were simultaneously fit to the three experimental binding isotherms using equations 23 and 27, with the two monochromatic isotherms sharing the same ^trueKd ^trueKd value. Three separate pairs of linear ^apoβ ^apoβ and ^satβ ^satβ baselines were fit in this procedure. TABLES 1-5 record the ^trueKd ^trueKd values at 25° C., obtained by analysis of Roche LightCycler data in 488 nm and 510 nm channels. The uncertainty of the fit (‘error’) was obtained using a boot-strapping technique in which 37% of the data was replicated. In all cases, no binding was recorded if one of ^appKd ^appKd or ^trueKd ^trueKd exceeded 200 mM. The glucose constant of GGBP183 C-acrylodan is 4.21±0.08 mM at 25° C.

[6] = as above; format: binding; conditions: 37° C.; mutations in GGBP183C⋅acrylodan; read-out: glucose Kd values at 37° C.
[7] = Galactose affinities of the mutants that bind glucose (Roche LightCycler); format: binding; conditions: trueKd at 25° C., 183C acrylodan conjugates, read-out: Kd^298K(galactose)/mM
Excerpt: as §5, §6
The galactose affinities for those mutants that bind glucose were also determined.

[8] = apparent, ratiometric signal at the listed wavelength pair, read-out: Affinities (mM)^d Glucose aPPKa
[9] = from monochromatic signals, read-out: Affinities (mM)^d Glucose trueKa
[10] = apparent, ratiometric signal at the listed wavelength pair, read-out: Affinities (mM)^d Galactose ^appKd
[11] = from monochromatic signals, read-out: Affinities (mM)^d Galactose ^trueKd
[12] = 25° C., read-out: glucose affinities
[13] = trueKd at 25° C., 183C acrylodan conjugates, LightCycler 488 nm and 510 nm channels, ± = bootstrap uncertainty of fit, read-out: Kd^298K(glucose)/mM

N256A: GGBP 183C acrylodan conjugate with mutation N256A
Tm/K [1]: 324 K

D14N: GGBP 183C acrylodan conjugate with mutation D14N
Tm/K [1]: 317 K

N211Y: GGBP 183C acrylodan conjugate with mutation N211Y
Tm/K [1]: 316 K

R158A: GGBP 183C acrylodan conjugate with mutation R158A
Tm/K [1]: 322 K

D14H: GGBP 183C acrylodan conjugate with mutation D14H
Tm/K [1]: 317 K

N256D: GGBP 183C acrylodan conjugate with mutation N256D
Tm/K [1]: 321 K

A155F: GGBP 183C acrylodan conjugate with mutation A155F
Tm/K [1]: 321 K | Kd [2, 8]: 0.06 mM | Kd [2, 9]: 0.06 mM | Response Intensity^c [3]: — | Response Shape^b [3]: m | Kd [4, 10]: 0.82 mM | Kd [4, 11]: 0.93 mM

D14L: GGBP 183C acrylodan conjugate with mutation D14L
Tm/K [1]: 311 K

N211W: GGBP 183C acrylodan conjugate with mutation N211W
Tm/K [1]: 328 K

F16L: GGBP 183C acrylodan conjugate with mutation F16L
Tm/K [1]: 321 K

F16A: GGBP 183C acrylodan conjugate with mutation F16A
Tm/K [1]: 319 K

GGBP16C-acrylodan: F16C mutant of E. coli GGBP, acrylodan conjugate
Kd [5, 12]: ~0.2 mM

M182W: GGBP 183C acrylodan conjugate with mutation M182W
Tm/K [1]: 322 K

D236A: GGBP 183C acrylodan conjugate with mutation D236A
Tm/K [1]: 320 K

A155L: GGBP 183C acrylodan conjugate with mutation A155L
Tm/K [1]: 320 K

N211S: GGBP 183C acrylodan conjugate with mutation N211S
Tm/K [1]: 319 K

D14E: GGBP 183C acrylodan conjugate with mutation D14E
Tm/K [1]: 318 K

N91A: GGBP 183C acrylodan conjugate with mutation N91A
Tm/K [1]: 326 K

A155S: GGBP 183C acrylodan conjugate with mutation A155S
Tm/K [1]: 321 K | Kd [2, 8]: 0.31 mM | Kd [2, 9]: 0.35 mM | Response Intensity^c [3]: — | Response Shape^b [3]: m?

N211M: GGBP 183C acrylodan conjugate with mutation N211M
Tm/K [1]: 317 K

H152N: GGBP 183C acrylodan conjugate with mutation H152N
Tm/K [1]: 322 K | Kd [2, 8]: 20 mM | Kd [2, 9]: 15 mM | Kd [5, 13]: 18.8 ± 1.3 mM | Kd [6]: ~14 mM | Response Intensity^c [3]: — | Response Shape^b [3]: d | Kd [4, 10]: 21 mM | Kd [4, 11]: 21 mM

A155Q: GGBP 183C acrylodan conjugate with mutation A155Q
Tm/K [1]: 321 K

H152Q: GGBP 183C acrylodan conjugate with mutation H152Q
Tm/K [1]: 322 K | Kd [2, 8]: 4.6 mM | Kd [2, 9]: 5.1 mM | Kd [5, 13]: 25.8 ± 2 mM | Kd [6]: ~36 mM | Response Intensity^c [3]: — | Response Shape^b [3]: d

N211H: GGBP 183C acrylodan conjugate with mutation N211H
Tm/K [1]: 320 K

D154N: GGBP 183C acrylodan conjugate with mutation D154N
Tm/K [1]: 318 K

N211K: GGBP 183C acrylodan conjugate with mutation N211K
Tm/K [1]: 315 K

A155Y: GGBP 183C acrylodan conjugate with mutation A155Y
Tm/K [1]: 321 K

D14A: GGBP 183C acrylodan conjugate with mutation D14A
Tm/K [1]: 317 K | Kd [7]: 90 ± 21 mM

A155M: GGBP 183C acrylodan conjugate with mutation A155M
Tm/K [1]: 321 K | Kd [2, 8]: 0.05 mM | Kd [2, 9]: 0.05 mM | Response Intensity^c [3]: — | Response Shape^b [3]: m | Kd [4, 10]: 6.7 mM | Kd [4, 11]: 8.7 mM

H152K: GGBP 183C acrylodan conjugate with mutation H152K
Tm/K [1]: 319 K

D14T: GGBP 183C acrylodan conjugate with mutation D14T
Tm/K [1]: 316 K

D236N: GGBP 183C acrylodan conjugate with mutation D236N
Tm/K [1]: 320 K

H152A: GGBP 183C acrylodan conjugate with mutation H152A
Tm/K [1]: 316 K

N211F: GGBP 183C acrylodan conjugate with mutation N211F
Tm/K [1]: 323 K

K92A: GGBP 183C acrylodan conjugate with mutation K92A
Tm/K [1]: 323 K

H152F: GGBP 183C acrylodan conjugate with mutation H152F
Tm/K [1]: 321 K | Kd [2, 8]: 15 mM | Kd [2, 9]: 16 mM | Kd [5, 13]: 21.1 ± 0.9 mM | Kd [6]: ~17 mM | Response Intensity^c [3]: — | Response Shape^b [3]: d

A155W: GGBP 183C acrylodan conjugate with mutation A155W
Tm/K [1]: 322 K

Y10A: GGBP 183C acrylodan conjugate with mutation Y10A
Tm/K [1]: 326 K

A155K: GGBP 183C acrylodan conjugate with mutation A155K
Tm/K [1]: 318 K

N211Q: GGBP 183C acrylodan conjugate with mutation N211Q
Tm/K [1]: 317 K | Kd [2, 8]: 29 mM | Kd [2, 9]: 22 mM | Response Intensity^c [3]: — | Response Shape^b [3]: d

A155H: GGBP 183C acrylodan conjugate with mutation A155H
Tm/K [1]: 314 K | Kd [7]: 17.7 ± 2.1 mM | Kd [5, 13]: 13.5 ± 2.5 mM

R158K: GGBP 183C acrylodan conjugate with mutation R158K
Tm/K [1]: 318 K

D154A: GGBP 183C acrylodan conjugate with mutation D154A
Tm/K [1]: 320 K

GGBP16C-badan: F16C mutant of E. coli GGBP, badan conjugate
Kd [5, 12]: ~0.2 mM

N211A: GGBP 183C acrylodan conjugate with mutation N211A
Tm/K [1]: 317 K
